Measured values reported in patent publication US7109193B2, “Tricyclic diazepines tocolytic oxytocin receptor antagonists” (Wyeth, priority 2001, dated 2006).

Legend:
[1] = target: T1, human vasopressin V1a receptor subtype (Homo sapiens, UniProt P37288); experiment: Vasopressin binding in Chinese Hamster Ovary cell membranes expressing human vasopressin V1a subtype receptors; conditions: CHO cell membranes, [3H]Manning ligand; for IC50: values in parentheses; for inhibition at 0.1 µM: 100 nM, values without parentheses
T1 construct: host or cells: CHO cells (pZeoSV vector for the Thibonnier line)
T1 sequence (P37288 whole entry): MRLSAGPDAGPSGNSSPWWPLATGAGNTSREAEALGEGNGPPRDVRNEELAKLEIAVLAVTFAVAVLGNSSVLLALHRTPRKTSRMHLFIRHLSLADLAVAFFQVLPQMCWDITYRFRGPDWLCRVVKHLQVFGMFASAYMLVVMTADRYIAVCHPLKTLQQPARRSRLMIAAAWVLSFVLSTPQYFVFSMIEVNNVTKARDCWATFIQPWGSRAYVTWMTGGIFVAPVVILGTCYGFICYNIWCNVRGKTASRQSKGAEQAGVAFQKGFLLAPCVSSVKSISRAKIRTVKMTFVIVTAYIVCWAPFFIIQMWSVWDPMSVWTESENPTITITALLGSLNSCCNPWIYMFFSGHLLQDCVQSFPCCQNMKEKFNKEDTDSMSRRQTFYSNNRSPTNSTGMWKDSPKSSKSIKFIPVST
In short: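 Displacement of [3H]Manning ligand (8 nM working solution) from human V1a receptors in CHO cell membranes, 25–50 μg protein per well. Incubation ran 60 min at room temperature in 50 mM Tris-HCl pH 7.4 with protease inhibitors, followed by filtration and scintillation counting. Results are given as IC50 or percent inhibition.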

For `O=C(c1ccc(-c2cccc3ccccc23)nc1)N1Cc2cccn2Cc2ccccc21` [Example 28, [6-(Naphthalen-1-yl)-pyridin-3-yl]-[10,11-dihydro-5H-pyrrolo[2,1-c][1,4]benzodiazepin-10-yl]methanone], the melting point was 155 to 158 °C and the IC50 [1] was 66.6 nM.
In the case of `COc1cc(C(=O)N2Cc3ccc(C(=O)N4CCC[C@H]4CN4CCCC4)n3Cc3ccccc32)ccc1-c1ccccc1C(F)(F)F` [Example 20, {[10-(2-Methoxy)-2′-trifluoromethyl-[1,1′-biphenyl]-4-yl]carbonyl}-[(2S)-[(2-pyrrolidin-1-yl)methyl]pyrrolidin-1-yl]-10,11-dihydro-5H-pyrrolo[2,1-c][1,4]benzodiazepin-3-yl-methanone], the melting point is reported as 125 to 128 °C and the IC50 [1] is reported as 717 nM.
`COc1cc(C(=O)N2Cc3ccc(C(=O)N(C)CCCN(C)C)n3Cc3ccccc32)ccc1-c1ccccc1C(F)(F)F` [Example 21, N-Methyl-[N-(3-dimethylamino)propyl]-10-{[2-methoxy-2′-trifluoromethyl-[1,1′-biphenyl]-4-yl]carbonyl}-10,11-dihydro-5H-pyrrolo[2,1-c][1,4]benzodiazepin-3-carboxamide] gave a melting point of 140 to 142 °C and an IC50 [1] of 378 nM.
`COc1cc(C(=O)N2Cc3cccn3Cc3ccccc32)ccc1-n1c(C)ccc1C` [Example 27, [4-(2,5-Dimethyl-1-H-pyrrol-1-yl)-3-methoxy-phenyl][10,11-dihydro-5H-pyrrolo[2,1-c][1,4]benzodiazepin-10-yl]methanone] showed a melting point of 141 to 144 °C and an IC50 [1] of 45.6 nM.
`Cc1ccc(-c2ccc(C(=O)N3Cc4cccn4Cc4ccccc43)cc2)c2ccccc12` [Example 25, [4-(4-Methyl-naphthalen-1-yl)phenyl][10,11-dihydro-5H-pyrrolo[2,1-c][1,4]benzodiazepin-10-yl]methanone] gave a melting point of 160 to 162 °C and an IC50 [1] of 131 nM.
`O=C(c1ccc(-c2cccc3ccccc23)cc1Cl)N1Cc2cccn2Cc2ccccc21` [Example 24, [2-Chloro-4-(naphthalen-1-yl)phenyl][10,11-dihydro-5H-pyrrolo[2,1-c][1,4]benzodiazepin-10-yl]methanone] showed a melting point of 115 to 117.5 °C and an IC50 [1] of 22.5 nM.
`Cc1cc(C(=O)N2Cc3ccc(C(=O)N4CCN(CCCN(C)C)CC4)n3Cc3ccccc32)ccc1-c1ccccc1C(F)(F)F` [Example 4, [4-(3-Dimethylaminopropyl)-piperazin-1-yl]-[10-(2-methyl-2′-trifluoromethyl-[1,1′-biphenyl]-4-yl)carbonyl]-[10,11-dihydro-5H-pyrrolo[2,1-c][1,4]benzodiazepin-3-yl]-methanone] gave a melting point of 85 to 95 °C and an inhibition at 0.1 µM [1] of 14%.
Work on `C=CCN1CCN(C(=O)c2ccc3n2Cc2ccccc2N(C(=O)c2ccc(-c4ccccc4OC)cc2)C3)CC1` [Example 221, (4-Allyl-1-piperazinyl){10-[(2′-methoxy[1,1′-biphenyl]4-yl)carbonyl]-10,11-dihydro-5H -pyrrolo[2,1-c][1,4]benzodiazepin-3-yl}methanone] yielded an IC50 [1] of 818 nM.
Work on `Cc1cc(C(=O)N2Cc3ccc(C(=O)N4CC[C@@H](N(C)C)C4)n3Cc3ccccc32)ccc1-c1ccccc1C(F)(F)F` [Example 271, [(3R)-3-(Dimethylamino)pyrrolidinyl](10-{[2-methyl-2′-(trifluoromethyl)[1,1′-biphenyl]-4-yl]carbonyl}-10,11-dihydro-5H-pyrrolo[2,1-c][1,4]benzodiazepin-3-yl)methanone] yielded an IC50 [1] of 983 nM.
`COc1ccccc1-c1ccc(C(=O)N2Cc3ccc(C(=O)N4CCN(CCCN(C)C)CC4)n3Cc3ccccc32)cc1` [Example 246, {4-[3-(Dimethylamino)propyl]-1-piperazinyl}{10-[(2′-methoxy[1,1′-biphenyl]-4-yl)carbonyl]-10,11-dihydro-5H-pyrrolo[2,1-c][1,4]benzodiazepin-3-yl}methanone] showed an IC50 [1] of 373 nM.
For `COc1cc(C(=O)N2Cc3ccc(C(=O)N(C)CCCN(C)C)n3Cc3ccccc32)ccc1-c1cccc2ccccc12` [Example 106, N-[3-(Dimethylamino)propyl]-10-[3-methoxy-4-(1-naphthyl)benzoyl]-N-methyl-10,11-dihydro-5H-pyrrolo[2,1-c][1,4]benzodiazepine-3-carboxamide], the inhibition at 0.1 µM [1] was 22%.
With `COc1cc(-c2ccccc2C)c(Cl)cc1C(=O)N1Cc2ccc(C(=O)N3CC[C@@H](N(C)C)C3)n2Cc2ccccc21` [Example 273, {10-[(6-Chloro-3-methoxy-2′-methyl[1,1′-biphenyl]-4-yl)carbonyl]-10,11-dihydro-5H-pyrrolo[2,1-c][1,4]benzodiazepin-3-yl}[(3R)-3-(dimethylamino)pyrrolidinyl]methanone] the IC50 [1] was 481 nM.
Compound `COc1ccccc1-c1ccc(C(=O)N2Cc3ccc(C(=O)N4CCN(C)CC4)n3Cc3ccccc32)cc1` [Example 48, {10-[(2′-Methoxy[1,1′-biphenyl]-4-yl)carbonyl]-10,11-dihydro-5H-pyrrolo[2,1-c][1,4]benzodiazepin-3-yl}(4-methyl-1-piperazinyl)methanone] has an IC50 [1] of 484 nM.
`COc1cc(C(=O)N2Cc3ccc(C(=O)N(C)CCN(C)C)n3Cc3ccccc32)ccc1-c1ccccc1C(F)(F)F` [Example 22, N-Methyl-[N-(2-dimethylamino)ethyl]-10-{[2-methoxy-2′-trifluoromethyl-[1,1′-biphenyl]-4-yl]carbonyl}-10,11-dihydro-5H-pyrrolo[2,1-c][1,4]benzodiazepine-3-carboxamide] showed a melting point of 187 to 190 °C and an IC50 [1] of 225 nM.
Work on `COc1cccc(-c2ccc(C(=O)N3Cc4ccc(C(=O)N(C)CCCN(C)C)n4Cc4ccccc43)cc2C)c1` [Example 102, N-[3-(Dimethylamino)propyl]-10-[(3′-methoxy-2-methyl[1,1′-biphenyl]-4-yl)carbonyl]-N-methyl-10,11-dihydro-5H-pyrrolo[2,1-c][1,4]benzodiazepine-3-carboxamide] yielded an inhibition at 0.1 µM [1] of 45%.
